{
  "source": "patent US20230045616A1",
  "about": "“CANCER TREATMENT METHOD AND MEDICINE” (Nonprofit Organization North East Japan Study Group, priority 2019, published 2023)",
  "test_system": "lung cancer",
  "test": "CT / X-ray images of cancer tissue in treated lung cancer patients (case reports)",
  "assay_type": "in vivo, human",
  "note": "Entries after “also recorded” stand apart in the source; their conditions may differ.",
  "data": [
    {"substance": "nivolumab", "values": [
      {"measurement": "cancer tissue in CT images after the treatment", "setting": "Example 3 patient, nivolumab after administration of Extract Z, FIG. 5", "result": "almost eliminated"},
      {"measurement": "primary foci and lymph node metastasis", "setting": "Example 23 patient, nivolumab alone 240 mg every 2 weeks from September, 2017, progression observed on Nov. 6, 2020", "result": "primary foci were almost eliminated and metastasis to the lymph nodes was eliminated"},
      {"measurement": "swelling in the cervical lymph node (CT images)", "setting": "nivolumab 240 mg every 2 weeks continued after radiation of 30 Gy/10 fr to the cervical lymph node, stage IVb lung cancer patient", "result": "suppressed (April and October, 2019) and partially remitted; also recorded: suppressed (May, 2019) and partially remitted"},
      {"measurement": "swelling in the cervical lymph node to which cancer had been metastasized (CT images)", "setting": "nivolumab alone, 240 mg per dose i.v. drip at an interval of 2 weeks, stage IVb lung cancer patient without driver gene mutation", "result": "progressed"}
    ]}
  ]
}
